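All cell lines were grown in 96-well plates and treated with compound for 48 hours. TGI: total growth inhibition.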
Key:
Experiment in all cases: DTP human tumour cell line panel, 48 h
DLD-1 colon = tested on: DLD-1 colon
HOP-18 NSCLC = tested on: HOP-18 NSCLC
DMS 273 small cell lung = tested on: DMS 273 small cell lung
DMS 114 small cell lung = tested on: DMS 114 small cell lung
SNB-78 CNS = tested on: SNB-78 CNS
XF 498 CNS = tested on: XF 498 CNS
RXF-631 renal = tested on: RXF-631 renal

Measured: TGI

O=C(O)\C=C/C=C/C=C/C=C/C(=O)O
not listed: XF 498 CNS | RXF-631 renal
> 100 µM: all other assays above

CC(C)(c1ccccc1)c1ccc(Oc2ccc3c(c2)-c2nc-3nc3[nH]c(nc4nc(nc5[nH]c(n2)c2ccc(Oc6ccc(C(C)(C)c7ccccc7)cc6)cc52)-c2cc(Oc5ccc(C(C)(C)c6ccccc6)cc5)ccc2-4)c2ccc(Oc4ccc(C(C)(C)c5ccccc5)cc4)cc32)cc1
not listed: HOP-18 NSCLC | DMS 114 small cell lung
> 100 µM: all other assays above

Cn1ncc2c(=O)[nH]c(-c3ccccc3)nc21
not listed: HOP-18 NSCLC
> 100 µM: all other assays above

Cc1cccc(NC(N)=S)c1
not listed: HOP-18 NSCLC | DMS 273 small cell lung
> 100 µM: all other assays above

CC1(C)CCc2cc3c(cc2O1)OC(C)(C)CC3=O
> 100 µM: DLD-1 colon | XF 498 CNS | DMS 273 small cell lung | DMS 114 small cell lung
